Experiment [1] has as its target T1, soybean lipoxygenase (LOX, type I-B) immobilized in crosslinked phyllosilicate (TMOS-crosslinked montmorillonite) (Glycine max, UniProt P08170).
T1 construct: purchased Sigma, St. Louis, Mo
T1 sequence (P08170 1-839): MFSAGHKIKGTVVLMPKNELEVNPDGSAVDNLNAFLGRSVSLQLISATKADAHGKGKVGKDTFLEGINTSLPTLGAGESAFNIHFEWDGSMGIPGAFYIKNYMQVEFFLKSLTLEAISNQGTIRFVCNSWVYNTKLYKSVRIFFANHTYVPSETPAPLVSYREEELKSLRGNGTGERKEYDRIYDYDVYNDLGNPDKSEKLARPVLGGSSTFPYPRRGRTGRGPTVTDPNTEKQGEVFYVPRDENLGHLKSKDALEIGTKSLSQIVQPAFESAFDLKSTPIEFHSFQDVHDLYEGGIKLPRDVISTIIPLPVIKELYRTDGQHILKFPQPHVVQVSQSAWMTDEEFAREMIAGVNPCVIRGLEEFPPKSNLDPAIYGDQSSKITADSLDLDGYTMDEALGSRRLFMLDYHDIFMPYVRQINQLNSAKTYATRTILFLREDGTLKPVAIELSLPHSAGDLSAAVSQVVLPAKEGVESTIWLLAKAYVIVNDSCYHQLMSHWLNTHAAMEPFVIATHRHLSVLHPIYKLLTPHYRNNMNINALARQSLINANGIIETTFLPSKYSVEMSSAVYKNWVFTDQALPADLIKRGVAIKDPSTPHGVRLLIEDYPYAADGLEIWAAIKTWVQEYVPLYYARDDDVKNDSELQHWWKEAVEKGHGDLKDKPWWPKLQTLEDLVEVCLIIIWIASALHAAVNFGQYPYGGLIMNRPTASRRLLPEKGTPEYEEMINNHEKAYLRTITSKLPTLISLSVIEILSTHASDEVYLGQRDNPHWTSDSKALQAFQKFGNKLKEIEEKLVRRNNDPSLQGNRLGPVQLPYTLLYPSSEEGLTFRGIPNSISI
The experiment in a line: LOX oxidation of linoleic acid, hydroperoxide (HPOD) formation, immobilized enzyme. It counts as biochemical. The note with it: substrate linoleic acid 0-20 μmoles; Lineweaver-Burk plot; LOX immobilized in crosslinked phyllosilicates. The procedure: Measurement of Enzymatic Activity. The activity of the immobilized lipoxygenase was assayed by measurement of hydroperoxide formation (Parra-Diaz, D. et al. [1993] supra). An aliquot of the substrate (5 μmoles of linoleic acid) dissolved in methylene chloride was placed in a 10 mL flask and evaporated to dryness under a stream of nitrogen. The reaction medium containing 0.2 mL of 100 mM deoxychlorate (DOC) and 1.8 mL of sodium borate buffer (0.2 M, pH 9.0) was added to the substrate, and the mixture was then shaken at 250 rpm for 0.5 h at 15° C. The reaction was initiated by adding a suitable amount (approximately 0.15 mg) free or immobilized LOX. Oxidation was conducted at 15° C. with agitation at 250 rpm for two hours. The reaction was quenched by adding 400 μL of 1 M citric add. Linoleic acid hydroperoxide was isolated by extracting the reaction mixture twice with 2 mL chloroform:methanol (2/1, v/v). After removing the solvent under a stream of nitrogen, the hydroperoxide was redissolved in 3 mL ethanol. The amount of hydroperoxide was determined spectrophotometrically by the xylenol orange method (Jiang, T.-Y. et al. [1991] Lipids 26:853-856). […] All results were corrected by subtracting the reading from controls without enzymes. […]
Effect of substrate concentration. The rate of hydroperoxide (HPOD) formation was measured at linoleic acid concentrations ranging from 0-20 μmoles. […]

The target in experiment [2] is T2, free soybean lipoxygenase (LOX, type I-B) (Glycine max, UniProt P08170).
T2 sequence (P08170 1-839): T1 sequence (P08170 1-839)
The experiment in a line: LOX oxidation of linoleic acid, hydroperoxide (HPOD) formation, free enzyme. It counts as biochemical. The note with it: substrate linoleic acid; free LOX under similar conditions.
Method: Measurement of Enzymatic Activity. The activity of the immobilized lipoxygenase was assayed by measurement of hydroperoxide formation (Parra-Diaz, D. et al. [1993] supra). An aliquot of the substrate (5 μmoles of linoleic acid) dissolved in methylene chloride was placed in a 10 mL flask and evaporated to dryness under a stream of nitrogen. The reaction medium containing 0.2 mL of 100 mM deoxychlorate (DOC) and 1.8 mL of sodium borate buffer (0.2 M, pH 9.0) was added to the substrate, and the mixture was then shaken at 250 rpm for 0.5 h at 15° C. The reaction was initiated by adding a suitable amount (approximately 0.15 mg) free or immobilized LOX. Oxidation was conducted at 15° C. with agitation at 250 rpm for two hours. The reaction was quenched by adding 400 μL of 1 M citric add. Linoleic acid hydroperoxide was isolated by extracting the reaction mixture twice with 2 mL chloroform:methanol (2/1, v/v). After removing the solvent under a stream of nitrogen, the hydroperoxide was redissolved in 3 mL ethanol. The amount of hydroperoxide was determined spectrophotometrically by the xylenol orange method (Jiang, T.-Y. et al. [1991] Lipids 26:853-856). Standards were prepared by diluting a commercial cumene peroxide. […]

One compound from patent US6180378A, “Immobilization of bioactive protein in phyllosilicates” (The United States of America as represented by the …, priority 1999, dated 2001) can be followed below.

The term Km denotes the concentration of substrate that gives half-maximal velocity. The term Vmax denotes the rate approached at saturating substrate. Regarding `CCCCC/C=C\C/C=C\CCCCCCCC(=O)O` [linoleic acid], in experiment [1], the Km turned out to be 1700 µM and the Vmax was 0.023 µmol/min. In experiment [2], the Km was 2500 µM and the Vmax amounted to 0.056 mol/min.
